Assay results published in patent US8361999B2, “Methods of treating cholesterol gallstone disease with ezetimibe” (Pontificia Universidad Catolica de Chile, priority 2005, dated 2013).
Entries after “also recorded” stand apart in the source; their conditions may differ. Marks after values point to notes of the source that are not given here.

Columns and labels:
Assay type in all cases: in vivo, mouse
C57BL/6J mice [1] = experiment: Lithiasis of the gallbladder and cholesterol crystals, protocol #2 (Ezetimibe in lithogenic diet, 30 days)
Protocol: We used mice C57BL/6J susceptible to the development of cholelithiasis originally obtained from Jackson Corp (Bar Harbor, Me., USA) and the colonies were grown in our Laboratory of Gastroenterology, Facultad de Medicina, P. Universidad Católica de Chile. The experimental groups were fed a control chow diet low in cholesterol (<0.02% cholesterol, Prolab RMH3000, PMI Feeds Inc., St. Louis, Mo.) or a lithogenic diet (1.25% cholesterol, 0.5% cholic acid, 15% fat, TD90221, Harlan Teklad, Madison, Wis.) (Amigo et al. 2000). These mice were also treated with Ezetimibe (Zetia®, Merk/Schering Plough) or placebo. In protocol #1 Zetia® tablets were grinded in a porcelain mortar and dissolved in water to be administered to the mice in one daily dose (08 h) of 5 mg/Kg weight by gavage in a final volume of […]; the control groups were given the same volume of water by gavage without the drug. […]
Surgery and sample harvest. […] Afterwards, the common biliary duct is cannulated (biliary fistula) with a P-10 polyethylene cannula to collect bile during 15 minutes, determine bile flow by gravimetry (1 g bile=1 ml; bile flow is expressed as μl/min/g of mouse liver) and for posterior chemical analysis of biliary lipids and glutathione, as specified later. […]

C57BL/6J mice [2] = experiment: Determination of hepatic cholesterol, protocol #1; conditions: 14 days
Protocol: Surgery and sample harvest. The groups were maintained for 14 days (protocol #1) or 30 days (protocol #2) in the different experimental conditions. During the last three days of the protocols, 24 h depositions were collected from the different groups (pool) to determine the fecal excretion of neutral sterols (cholesterol) and acidic sterols (bile salts). At the end of the time established in the protocols, the mice were anesthetized (between 08:00-10:00 AM) with an intraperitoneal pentobarbital injection in doses of 4.5 mg per 100 gr body weight (Amigo et al., 2000) and subjected to surgery. Standardized surgery consists in an extended […] and visualization of abdominal organs, including liver, biliary tree and gallbladder. First, we performed a resection of the gallbladder (cholecystectomy), with the cystic duct previously ligated (Amigo et al., 2002; Amigo et al., 2000; Amigo et al., 2003b). The gallbladder is removed and visually inspected to determine the presence of gallstones. Then, the gallbladder bile is extracted to analyze the presence of cholesterol crystals in the fresh samples under the microscope with polarized light (20×). Aliquots are stored at −20° C. for subsequent chemical analysis. Afterwards, the common biliary duct is cannulated (biliary fistula) with a P-10 polyethylene cannula to collect bile during 15 minutes, determine bile flow by gravimetry (1 g bile=1 ml; bile flow is expressed as μl/min/g of mouse liver) and for posterior chemical analysis of biliary lipids and glutathione, as specified later. […] Then, the liver is removed, weighted, frozen in liquid nitrogen and stored at −80 for subsequent analyses. The plasma is separated by centrifugation at 1,500 rpm and stored at −80° C. for later analysis. The animal protocols were approved by our institution Ethics Committee and the animals were treated according to international care rules for experimental animals.
Determination of hepatic cholesterol. The hepatic cholesterol content is quantified from hepatic tissue (50 mg) that is homogenized in chloroform/methanol 2:1. The homogenate is incubated at 50° C. for 30 minutes, and then distilled H2O is added to separate the phases. The mix is vortexed and incubated at 4° C. for two hours and centrifuged at 1,000 rpm for 20 minutes. The lower phase (hydrophobic-chloroform) is removed and dried under gaseous nitrogen. The lipids on the tube wall are resuspended in chloroform plus Triton X-100 0.5% v/v. Four aliquots are taken and dried at room temperature. Total cholesterol content was measured to half of the tubes by the enzymatic method described earlier for biliary cholesterol. To the other half, free cholesterol was measured in buffer (Tris-HCl pH 7.6, Triton X-100, 0.2% phenol, aminoantipyrine) plus the enzymes cholesterol oxidase and peroxidase. The samples are incubated and quantified in the same way described for total cholesterol. The cholesterol ester content for each sample is calculated as the difference between total cholesterol and free cholesterol. The values obtained in each case are given as mg cholesterol/g liver (Folch et al., 1957).

SR-BI = experiment: Hepatic expression of SR-BI; conditions: 14 days

SMILES: O=C1[C@H](CC[C@H](O)c2ccc(F)cc2)[C@@H](c2ccc(O)cc2)N1c1ccc(F)cc1 [Ezetimibe, (−)-1-(4-fluorophenyl)-(3R)-[3-(4-fluorophenyl)-(.S)-hydroxypropyl]-(4S)-(4-hydroxyphenyl)-2-azetidinone]
- mice that developed gallstones or cholesterol crystals in the gallbladder (C57BL/6J mice [1]; lithogenic diet plus Ezetimibe 5-6 mg/kg/day in the diet, 30 days, 100% on lithogenic diet alone): 0%
- formation of cholesterol gallstones (C57BL/6J mice [1]; lithogenic diet plus Ezetimibe in the diet, 30 days (FIG. 5)): inhibits; also recorded: completely inhibited
- Hepatic Cholesterol Esterified (C57BL/6J mice [2]; Chow + Ezetimibe): 0.34 ± 0.16 mg/mL
- Hepatic Cholesterol Free (C57BL/6J mice [2]; Chow + Ezetimibe): 1.91 ± 0.65 mg/mL
- Hepatic Cholesterol Total (C57BL/6J mice [2]; Chow + Ezetimibe): 2.26 ± 0.59 mg/mL
- Hepatic Cholesterol Esterified (C57BL/6J mice [2]; Lithogenic + Ezetimibe): 1.31 ± 0.99^& mg/ml
- Hepatic Cholesterol Free (C57BL/6J mice [2]; Lithogenic + Ezetimibe): 2.59 ± 0.24 mg/mL
- Hepatic Cholesterol Total (C57BL/6J mice [2]; Lithogenic + Ezetimibe): 3.91 ± 1.05*^& mg/ml
- hepatic cholesterol content smaller with Ezetimibe than with water (C57BL/6J mice [2]; control diet): 20%
- increment of total hepatic cholesterol content (C57BL/6J mice [2]; lithogenic diet plus Ezetimibe, 360% on lithogenic diet without Ezetimibe): 38%
- hepatic expression of SR-BI, lithogenic diet plus Ezetimibe vs lithogenic diet (SR-BI): no significant differences
